{"source": "paper PMC9573696", "about": "“Experimental Examination of Solubility and Lipophilicity as Pharmaceutically Relevant Points of Novel Bioactive Hybrid Compounds” (Molecules, 2022)", "key": {"[1]": {"test": "Equilibrium (thermodynamic) solubility, shake-flask method", "assay_type": "physicochemical", "settings": "for Solubility S × 10^3 / Solubility x × 10^4 / Solubility x × 10^5 / Solubility S × 10^4 / Solubility x × 10^6: amorphous state; for Solubility S × 10^4 / Solubility x × 10^6: Buffer pH 7.4", "from_the_text": "The experimental solubility values of hybrids in the selected solvents within the temperature range of 293.15–313.15 K expressed in molarity are summarized in Table 2. The comparative analysis of the reference values of the solubility of compounds I–III at the standard temperature of 298.15 K is given as a histogram in Figure 3.\nShake-flask method as “gold standard” was used for determination thermodynamic solubility synthesized compounds in buffer solutions (pH 2.0 and 7.4) and 1-octanol in the temperature range of 293.15–313.15 K with a step of 5 degrees at atmospheric pressure. Excessive amounts of compound were added to glass vials c 12 mL of selected solvent. The heterogeneous system is closed with a lid and vigorously stirred at the selected temperature in an air thermostat with a stirring device until the solubility equilibrium has been reached. The time required for establishing a constant value of the solution concentration was determined from the solubility kinetic dependences and averaged 2 days. The equilibrated solutions were first survived to aim sedimentation of solid phase during 10 h, then centrifuged at 20,000 rpm for 30 min at specific temperatures, and then quickly filtered using a syringe equipped with a hydrophilic filter Millex-GV 0.22 µm (Ireland). Concentration of saturated solution was measured using spectrophotometer Cary-50 (Varian, USA) with an accuracy of 2–4%. The absorbances of compounds studied were measured at wavelengths 332 and 334 nm in buffer solutions and 1-octanol, respectively. If necessary, an aliquot was diluted with an appropriate solvent. The final pH of the saturated buffers was monitored. The solubility of compounds in each solvent was determined by repeating the procedure three times.\nMole fraction concentration was calculated from solubility value S expressed in mol∙L^−1 using Equation (10):(10) x=M2S/S(M2−M1)+1000ρ, where M1 and M2 are the molar masses of solute and solvent, respectively, and ρ (g∙cm^−3) is the density of the pure solvents. The mole fraction solubilities for buffer solutions were calculated taking into account the buffer compositions. The used values of densities are given in Table S6 in Supplementary Material."}, "[2]": {"test": "Apparent thermodynamic functions of dissolution (van't Hoff)", "assay_type": "physicochemical", "settings": "Thm = 302.98 K", "from_the_text": "The dissolution of the new hybrids was characterized based on apparent thermodynamic parameters obtained from temperature dependences of solubility of the studied compounds in the selected solvents (Figure 6). […] The van’t Hoff enthalpy of dissolution can be expressed as the inclination of a tangent to a solubility curve plotted as lnx vs. (1/T − 1/Thm) by Equation (6): (6) ΔHsolo=−R(∂lnx/∂(1/T−1/Thm))=−R⋅slope where R = 8.314 J⋅K^−1·mol^−1 is the universal gas constant. Thm = 302.98 K denotes the mean harmonic temperature, which was calculated by Equation (7):(7) Thm=n/∑i=1n1/Ti where n represented the number of experimental temperatures. The apparent standard Gibbs energy was evaluated by Equation (8):(8) ΔGsolo=−RThm×intersept\nThe apparent standard solution entropies were obtained from the well-known relationship:(9) ΔSsolo=ΔHsolo−ΔGsolo/Thm\nThe calculated apparent thermodynamic solubility functions of dissolution (Gibbs energy, enthalpy, and entropy) at standard temperature 298.15 K for hybrid compounds were collected in Table 4."}, "[3]": {"test": "Thermodynamic functions of transfer 1-octanol/buffer pH 7.4", "assay_type": "physicochemical", "settings": "298.15 K", "experimental": "The temperature variation of the partition coefficient provides enthalpic and entropic contributions to the free energy of transfer. The thermodynamic transfer functions for hybrids I–III in the 1-octanol/buffer pH 7.4 system were calculated by Equations (12)–(16) and are summarized in Table 6. The standard Gibbs energy values for all the compounds are negative. Therefore, the transfer from the aqueous medium to the organic phase within the studied temperature range is thermodynamically favourable and spontaneous. The standard transfer enthalpies of all the studied compounds are positive, which means the process is endothermic. Energy is consumed during the transfer to overcome the hydrophobic effects in water (destruction of the molecule solvate shell structure), destruction of the solvent–solute interactions in the aqueous medium and creation of a cavity in the organic phase where the solute molecules can enter.\nThe standard change in Gibbs free energy of transfer (∆trG^o) from the buffer to the organic phase was calculated by Equation (14):∆trG^o = −RTlnP*o/b(14)\nThe standard change entropy of transfer (∆trS^o) is determined as follows:∆trS^o = (∆trH^o − ∆trG^o)/T(15)"}, "[4]": {"tested_on": "C. parapsilosis ATCC 22019", "test": "In vitro antifungal activity, microbroth dilution (MIC)", "assay_type": "cell-based", "settings": "C. parapsilosis ATCC 22019", "experimental": "(§1) The in vitro antifungal screening results of synthesized compounds was evaluated against three fungal strains: C. parapsilosis ATCC 22019, C. utilis 84, and C. glabrata 61L are summarized in Table 1.\n(§2) The in vitro antifungal activity of the target compounds was measured by means of the minimal inhibitory concentrations (MIC) with fluconazole as the control drug. Procedure was carried out by the microbroth dilution method in 96-well plates according to the recommendations of the Clinical and Laboratory Standards Institute. The detailed information was reported previously. The investigated pathogenic species included C. parapsilosis ATCC 22019, C. utilis 84 and C. glabrata 61. The sensitivity was evaluated visually, after the incubation at 35 °C for 24 h and the value was compared with the growth density in the reference culture without the sample. Each test was conducted in triplicate."}, "C. utilis 84": {"tested_on": "C. utilis 84", "test": "In vitro antifungal activity, microbroth dilution (MIC)", "assay_type": "cell-based", "settings": "C. utilis 84", "experimental": "as §1, §2"}, "C. glabrata 61L": {"tested_on": "C. glabrata 61L", "test": "In vitro antifungal activity, microbroth dilution (MIC)", "assay_type": "cell-based", "settings": "Nakaseomyces glabratus; C. glabrata 61L; 35 °C, 24 h; read-out: MIC", "experimental": "as §1, §2"}}, "data": [{"smiles": "O=c1c2sc(=S)n(-c3ccc(F)cc3)c2ncn1CCCN1CCN(CC(O)(Cn2cncn2)c2ccc(F)cc2F)CC1", "note": "(stereo not shown) [II, 6-[3-[4-[2-(2,4-difluorophenyl)-2-hydroxy-3-(1H-1,2,4-triazol-1-yl)propyl]-1-piperazinyl]propyl]-2,3-dihydro-3-(4-fluorophenyl)-2-thioxo-thiazolo[4,5-d]pyrimidin-7(6H)-one]", "values": [{"measurement": "Solubility S × 10^3", "setting": "[1]; 1-Octanol, 293.15 K", "result": "5.3994 mol∙L^−1 (printed as S × 10^3)"}, {"measurement": "Solubility x × 10^4", "setting": "[1]; 1-Octanol, 293.15 K", "result": "8.5358 mol. frac. (printed as x × 10^"}, {"measurement": "Solubility S × 10^3", "setting": "[1]; 1-Octanol, 298.15 K", "result": "5.6703 mol∙L^−1 (printed as S × 10^3)"}, {"measurement": "Solubility x × 10^4", "setting": "[1]; 1-Octanol, 298.15 K", "result": "9.0027 mol. frac. (printed as x × 10^"}, {"measurement": "Solubility S × 10^3", "setting": "[1]; 1-Octanol, 303.15 K", "result": "5.8834 mol∙L^−1 (printed as S × 10^3)"}, {"measurement": "Solubility x × 10^4", "setting": "[1]; 1-Octanol, 303.15 K", "result": "9.3813 mol. frac. (printed as x × 10^"}, {"measurement": "Solubility S × 10^3", "setting": "[1]; 1-Octanol, 308.15 K", "result": "6.1187 mol∙L^−1 (printed as S × 10^3)"}, {"measurement": "Solubility x × 10^4", "setting": "[1]; 1-Octanol, 308.15 K", "result": "9.8001 mol. frac. (printed as x × 10^"}, {"measurement": "Solubility S × 10^3", "setting": "[1]; 1-Octanol, 313.15 K", "result": "6.3807 mol∙L^−1 (printed as S × 10^3)"}, {"measurement": "Solubility x × 10^4", "setting": "[1]; 1-Octanol, 313.15 K", "result": "10.2644 mol. frac. (printed as x × 10^"}, {"measurement": "solubility at 2 days", "setting": "[1]; 25 °C, organic solvent or mixture, thermodynamic from solid, 1-octanol, text values match 298.15 K, read-out: Solubility S in the alcohol (1-octanol)", "result": 5.67, "unit": "mM"}, {"measurement": "Solubility S × 10^3", "setting": "[1]; Buffer pH 2.0, 293.15 K", "result": "1.0755 mol∙L^−1 (printed as S × 10^3)"}, {"measurement": "Solubility x × 10^5", "setting": "[1]; Buffer pH 2.0, 293.15 K", "result": "1.9402 mol. frac. (printed as x × 10^"}, {"measurement": "Solubility S × 10^3", "setting": "[1]; Buffer pH 2.0, 298.15 K", "result": "1.2330 mol∙L^−1 (printed as S × 10^3)"}, {"measurement": "Solubility x × 10^5", "setting": "[1]; Buffer pH 2.0, 298.15 K", "result": "2.2272 mol. frac. (printed as x × 10^"}, {"measurement": "Solubility S × 10^3", "setting": "[1]; Buffer pH 2.0, 303.15 K", "result": "1.4273 mol∙L^−1 (printed as S × 10^3)"}, {"measurement": "Solubility x × 10^5", "setting": "[1]; Buffer pH 2.0, 303.15 K", "result": "2.5822 mol. frac. (printed as x × 10^"}, {"measurement": "Solubility S × 10^3", "setting": "[1]; Buffer pH 2.0, 308.15 K", "result": "1.6250 mol∙L^−1 (printed as S × 10^3)"}, {"measurement": "Solubility x × 10^5", "setting": "[1]; Buffer pH 2.0, 308.15 K", "result": "2.9451 mol. frac. (printed as x × 10^"}, {"measurement": "Solubility S × 10^3", "setting": "[1]; Buffer pH 2.0, 313.15 K", "result": "1.8394 mol∙L^−1 (printed as S × 10^3)"}, {"measurement": "Solubility x × 10^5", "setting": "[1]; Buffer pH 2.0, 313.15 K", "result": "3.3404 mol. frac. (printed as x × 10^"}, {"measurement": "Solubility S × 10^4", "setting": "[1]; 293.15 K", "result": "3.0126 mol∙L^−1 (printed as S × 10^4)"}, {"measurement": "Solubility x × 10^6", "setting": "[1]; 293.15 K", "result": "5.4794 mol. frac. (printed as x × 10^"}, {"measurement": "Solubility S × 10^4", "setting": "[1]; 298.15 K", "result": "3.1917 mol∙L^−1 (printed as S × 10^4)"}, {"measurement": "Solubility x × 10^6", "setting": "[1]; 298.15 K", "result": "5.8122 mol. frac. (printed as x × 10^"}, {"measurement": "Solubility S × 10^4", "setting": "[1]; 303.15 K", "result": "3.3788 mol∙L^−1 (printed as S × 10^4)"}, {"measurement": "Solubility x × 10^6", "setting": "[1]; 303.15 K", "result": "6.1623 mol. frac. (printed as x × 10^"}, {"measurement": "Solubility S × 10^4", "setting": "[1]; 308.15 K", "result": "3.5539 mol∙L^−1 (printed as S × 10^4)"}, {"measurement": "Solubility x × 10^6", "setting": "[1]; 308.15 K", "result": "6.4929 mol. frac. (printed as x × 10^"}, {"measurement": "Solubility S × 10^4", "setting": "[1]; 313.15 K", "result": "3.7469 mol∙L^−1 (printed as S × 10^4)"}, {"measurement": "Solubility x × 10^6", "setting": "[1]; 313.15 K", "result": "6.8581 mol. frac. (printed as x × 10^"}, {"measurement": "TΔSsolo", "setting": "[2]; 1-Octanol", "result": -10.4, "unit": "kJ/mol"}, {"measurement": "ΔGsolo", "setting": "[2]; 1-Octanol", "result": "17.4 ± 0.3", "unit": "kJ/mol"}, {"measurement": "ΔHsolo", "setting": "[2]; 1-Octanol", "result": "6.9 ± 0.1", "unit": "kJ/mol"}, {"measurement": "ΔSsolo", "setting": "[2]; 1-Octanol", "result": "−35.1 ± 1.8", "unit": "J·mol^−1·K^−1"}, {"measurement": "TΔSsolo", "setting": "[2]; Buffer pH 2.0", "result": -5.7, "unit": "kJ/mol"}, {"measurement": "ΔGsolo", "setting": "[2]; Buffer pH 2.0", "result": "26.6 ± 0.5", "unit": "kJ/mol"}, {"measurement": "ΔHsolo", "setting": "[2]; Buffer pH 2.0", "result": "20.9 ± 0.2", "unit": "kJ/mol"}, {"measurement": "ΔSsolo", "setting": "[2]; Buffer pH 2.0", "result": "−19.1 ± 1.1", "unit": "J·mol^−1·K^−1"}, {"measurement": "TΔSsolo", "setting": "[2]; Buffer pH 7.4", "result": -21.3, "unit": "kJ/mol"}, {"measurement": "ΔGsolo", "setting": "[2]; Buffer pH 7.4", "result": "29.9 ± 0.6", "unit": "kJ/mol"}, {"measurement": "ΔHsolo", "setting": "[2]; Buffer pH 7.4", "result": "8.5 ± 0.1", "unit": "kJ/mol"}, {"measurement": "ΔSsolo", "setting": "[2]; Buffer pH 7.4", "result": "−71.4 ± 4.2", "unit": "J·mol^−1·K^−1"}, {"measurement": "T∆trS^o", "setting": "[3]", "result": "31.9 ± 0.8", "unit": "kJ/mol"}, {"measurement": "∆trG^o", "setting": "[3]", "result": "-19.1 ± 0.3", "unit": "kJ/mol"}, {"measurement": "∆trH^o", "setting": "[3]", "result": "12.8 ± 0.2", "unit": "kJ/mol"}, {"measurement": "∆trS^o", "setting": "[3]", "result": "106.9 ± 2.9", "unit": "J·mol^−1·K^−1"}, {"measurement": "advantage over fluconazole", "setting": "[4]; MIC ratio", "result": 20, "unit": "fold"}, {"measurement": "MIC", "setting": "[4]; Lodderomyces parapsilosis, ATCC22019, 35 °C, 24 h, read-out: MIC", "result": 0.1, "unit": "mg/L"}, {"measurement": "activity relative to fluconazole", "setting": "C. utilis 84", "result": 2, "unit": "times"}, {"measurement": "MIC", "setting": "C. utilis 84; Williopsis jadinii, 35 °C, 24 h, read-out: MIC", "result": 1, "unit": "mg/L"}, {"measurement": "MIC", "setting": "C. glabrata 61L", "result": 4, "unit": "mg/L"}]}]}
